Experimental data reported in PubChem BioAssay (NCI).
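48-hour exposure; five concentrations; linearly interpolated endpoints. At the GI50, growth is halved. TGI: total growth inhibition.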

Columns and labels:
Assay in all cases: growth of human tumour cells (NCI), 48 h
NCI-H23 lung = test system: NCI-H23 lung
SK-OV-3 ovarian = test system: SK-OV-3 ovarian
HL-60(TB) leukemia = test system: HL-60(TB) leukemia
OVCAR-4 ovarian = test system: OVCAR-4 ovarian
TK-10 renal = test system: TK-10 renal
UACC-257 melanoma = test system: UACC-257 melanoma
NCI-H460 lung = test system: NCI-H460 lung
UACC-62 melanoma = test system: UACC-62 melanoma
UO-31 renal = test system: UO-31 renal
M14 melanoma = test system: M14 melanoma

SMILES | GI50 (NCI-H23 lung) [µM] | TGI (NCI-H23 lung) [µM] | GI50 (SK-OV-3 ovarian) [µM] | TGI (SK-OV-3 ovarian) [µM] | GI50 (HL-60(TB) leukemia) [µM] | TGI (HL-60(TB) leukemia) [µM] | GI50 (OVCAR-4 ovarian) [µM] | TGI (OVCAR-4 ovarian) [µM] | GI50 (TK-10 renal) [µM] | TGI (TK-10 renal) [µM] | GI50 (UACC-257 melanoma) [µM] | TGI (UACC-257 melanoma) [µM] | GI50 (NCI-H460 lung) [µM] | TGI (NCI-H460 lung) [µM] | GI50 (UACC-62 melanoma) [µM] | TGI (UACC-62 melanoma) [µM] | GI50 (UO-31 renal) [µM] | TGI (UO-31 renal) [µM] | GI50 (M14 melanoma) [µM] | TGI (M14 melanoma) [µM]
CC(=O)[CH-]C(=O)c1ccccc1.CC(=O)[CH-]C(=O)c1ccccc1.CC(=O)[CH-]C(=O)c1ccccc1.[In+3] | 30.9 | > 100 | 29.2 | 70.9 | 14.5 | 41.2 | 78.8 | > 100 | > 100 | > 100 | 46.2 | > 100 | 16.6 | > 100 | 32.9 | > 100 | 29.7 | 94 | 26.8 | > 100
C[C@]12CCC(=O)CC1CCCC2=O (stereo not given in full) | – | > 100 | – | > 100 | – | > 100 | – | > 100 | – | > 100 | – | > 100 | – | > 100 | – | > 100 | – | > 100 | – | > 100
O=[N+]([O-])c1ccc(N2CCC(CCCC3CCN(c4ccc([N+](=O)[O-])cc4[N+](=O)[O-])CC3)CC2)c([N+](=O)[O-])c1 | – | 54.3 | – | 37.5 | – | 35.9 | – | 33.4 | – | 32.7 | – | 28.9 | – | 28.8 | – | 24.4 | – | 26.9 | – | 26.7
O=[N+]([O-])c1cc(Cl)cnc1Br | – | 24.2 | – | 22.4 | – | 9.11 | – | 3.82 | – | 12.4 | – | 22.6 | – | 15.2 | – | 4.9 | – | 3.59 | – | 16.3
Cc1[nH]c(=O)nc(Nc2ccc(Cl)cc2)c1C(=O)N1CCN(CCO)CC1 | 76 | > 100 | 29.8 | 83.1 | > 100 | > 100 | > 100 | > 100 | 77.7 | > 100 | > 100 | > 100 | > 100 | > 100 | 94.8 | > 100 | > 100 | > 100 | > 100 | > 100
O=C1NOC(c2ccc(O)cc2)(c2ccc(O)cc2)c2ccccc21 | > 100 | > 100 | > 100 | > 100 | > 100 | > 100 | > 100 | > 100 | > 100 | > 100 | > 100 | > 100 | > 100 | > 100 | > 100 | > 100 | > 100 | > 100 | > 100 | > 100
CCc1ccccc1NC(=O)/C(N=O)=C(/C)O | – | > 100 | – | > 100 | – | > 100 | – | > 100 | – | > 100 | – | > 100 | – | > 100 | – | > 100 | – | > 100 | – | > 100
COc1ccc(C2=C(c3ccc(OC)c(OC)c3)C(=O)N3CCCC3C2)cc1 (stereo not given) | > 90.4 | > 100 | 30.5 | > 100 | 4.26 | 22.7 | 20.6 | > 100 | 76.2 | > 100 | 62.3 | > 100 | 4.46 | 23.3 | 13.2 | > 100 | 22.8 | > 100 | 35.9 | > 100
